In ChEMBL document CHEMBL1130000, “Studies of pyrrolo[1,2-alpha]benzimidazolequinone DT-diaphorase substrate activity, topoisomerase II inhibition activity, and DNA reductive alkylation” (J Med Chem, 1997):

How the values were obtained:
Assay type in all cases: functional
[1] = organism: Rattus norvegicus; assay: Maximum velocity was determined for rat liver DT diaphorase substrate activity
[2] = test system: Nucleic Acid; assay: Compound tested for its selectivity for incorporation into poly(dG) DNA base pairs
[3] = test system: Nucleic Acid; assay: Compound tested for its selectivity for incorporation into poly(dA-dT) DNA base pairs
[4] = test system: Nucleic Acid; assay: Compound tested for its selectivity for incorporation into poly(dA) DNA base pairs

Row | SMILES | Vmax [1] [nM/s] | Selectivity [2] [%] | Selectivity [3] [%] | Selectivity [4] [%]
1 | CC(=O)N[C@H]1CCn2c1nc1c2C(=O)C(C)=C(N2CC2)C1=O | 2.2 | 12.1 | 38 | 32.7
2 | CCCCC1=C(NC(C)=O)C(=O)c2nc3n(c2C1=O)CCC3 | 18.1 |  |  | 
3 | CC(=O)NC1CCn2c1nc1c2C(=O)C(C)=C(N2CC2)C1=O (racemic) | 8.3 | 8.2 | 28 | 41.5
4 | CC(=O)OC1CCn2c1nc1c2C(=O)C(C)=C(N2CC2)C1=O (racemic) | 66.5 |  |  | 
5 | CCCC(=O)OC1CCn2c1nc1c2C(=O)C(C)=C(NC(C)=O)C1=O (racemic) | 42.3 |  |  | 
6 | CCCCC1=C(N2CC2)C(=O)c2nc3n(c2C1=O)CCC3OC(C)=O (racemic) | 8.5 |  |  | 
7 | COCC(=O)OC1CCn2c1nc1c2C(=O)C(C)=C(NC(C)=O)C1=O (racemic) | 9.8 |  |  | 
8 | CC(=O)O[C@H]1CCn2c1nc1c2C(=O)C(C)=C(N2CC2)C1=O (stereo in doubt; (+)) | 83.4 |  |  | 5.9
9 | CC(=O)O[C@H]1CCn2c1nc1c2C(=O)C(C)=C(N2CC2)C1=O (stereo in doubt; (-)) | 62.6 |  |  | 8.5

Further lines, with some results ahead:

Row | Vmax [1] [nM/s] | SMILES | Selectivity [2] [%] | Selectivity [3] [%] | Selectivity [4] [%]
10 | 20.4 | CC(=O)NC1=C(C)C(=O)c2c(nc3n2CC[C@@H]3OC(C)=O)C1=O |  |  | 
11 | 14.6 | CC(=O)NC1=C(C)C(=O)c2c(nc3n2CC[C@H]3OC(C)=O)C1=O |  |  | 
12 | 15.4 | CCCCC1=C(NC(C)=O)C(=O)c2nc3n(c2C1=O)CCC3OC(C)=O (centres undefined) |  |  | 
13 | 16.7 | COCC(=O)O[C@@H]1CCn2c1nc1c2C(=O)C(C)=C(NC(C)=O)C1=O |  |  | 
14 | 28.2 | COCC(=O)O[C@H]1CCn2c1nc1c2C(=O)C(C)=C(NC(C)=O)C1=O |  |  | 
15 | 27.9 | CC(=O)NC1=C(C)C(=O)c2c(nc3n2CCC3OC(=O)c2ccccc2)C1=O (racemic) |  |  | 
16 | 38.6 | CC(=O)NC1=C(C)C(=O)c2c(nc3n2CCC3OC(C)=O)C1=O (racemic) |  |  | 
